In article PMC11472388 (ACS Medicinal Chemistry Letters, 2024):
Where “and” joins values, the source holds several entries; their conditions need not be identical. Equal values may be shown once. Read-outs that look alike come from different tables or passages of the source. Where a SMILES comes first, the peptide text is derived from it. Bridges are numbered along the chain shown (N, C = ends). [ ]: non-standard residue; d: D form. The star is where a group is joined. βGlc = OC[C@H]1O[C@@H](*)[C@H](O)[C@@H](O)[C@@H]1O; 1Nal = N[C@@H](Cc1cccc2ccccc12)C(=O)O

How the values were obtained:
[1] = biological target: T1, kappa opioid receptor (KOR) (Homo sapiens, UniProt P41145); test: Opioid receptor binding (NIMH PDSP), KOR
T1 construct: NIMH Psychoactive Drug Screening Program (PDSP)
T1 sequence (P41145 whole entry): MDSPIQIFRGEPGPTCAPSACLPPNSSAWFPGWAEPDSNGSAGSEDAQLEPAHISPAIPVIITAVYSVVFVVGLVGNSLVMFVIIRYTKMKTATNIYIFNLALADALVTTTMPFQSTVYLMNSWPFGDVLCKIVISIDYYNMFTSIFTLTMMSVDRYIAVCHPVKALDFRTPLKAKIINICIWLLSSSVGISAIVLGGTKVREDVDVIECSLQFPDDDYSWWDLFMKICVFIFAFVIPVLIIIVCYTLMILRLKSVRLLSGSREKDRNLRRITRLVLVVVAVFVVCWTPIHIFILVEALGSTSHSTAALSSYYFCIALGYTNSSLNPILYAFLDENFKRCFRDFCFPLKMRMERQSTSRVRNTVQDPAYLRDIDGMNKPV
Source text: (§1) Ki determinations at the 3 canonical opioid receptors, MOR, DOR. and KOR. were generously performed by the NIMH Psychoactive Drug Screening Program (PDSP), directed by Bryan L. Roth at the University of North Carolina at Chapel Hill and Project Officer Jamie Driscoll at NIMH, Bethesda. MD.

[2] = In vivo microdialysis and plasma pharmacokinetics (BBB penetration); set-up: species or system Sprague-Dawley rats; settings: rat, 10 mg/kg i.v.; for AUC Brain (estimated CSF, brain dialysate): striatal dialysate 0-60 min
Description: Following intravenous bolus injection, AUC, Cmax, half-life, and Tmax were determined in plasma and CSF dialysate, and the CSF/plasma ratios for AUC of the analogs were compared (Table 1).
Blood Brain Barrier Penetration and Pharmacokinetics
Animals: Male, Sprague-Dawley rats (225-325, n = 3/group; Envigo RMC Inc., Indianapolis, IN were used for in vivo microdialysis and pharmacokinetic experiments. Rats were co-housed in a temperature/humidity-controlled room on a 12-h reversed light/dark cycle. Food and water were available ad libitum. Animal studies were approved by The University of Arizona Institutional Animal Care and Use Committee, in accordance with NIH’s Care and Use of Laboratory Animals […]
Carotid Artery Catheterization and Microdialysis Surgery: Both procedures were performed in the same anesthetic event in accordance with our previous studies, with one exception, the left carotid artery was catheterized in each animal.2
In Vivo Microdialysis and Plasma Sampling: Blood-brain-barrier penetration and […]
same time to minimize injection site variations and individual differences between the animals. […]
following changes (Figure S3). 2, 4 The microdialysis probe (FZ-8-04; Amuza, San Diego, CA) was inserted into the striatum and perfused with aCSF (15 mM Tris HCl, 10 mM Tris base, 126 mM NaCl, 2.5 KCl, 1.2 mM NaH 2PO4, 2mM Na 2SO4, and adjusted pH to 7.4) at a rate of 0.5 µL/minute using one channel of a dual syringe pump (Fusion 101A Syringe Pump; Chemyx, Stafford, TX).
Boise, ID) and injected via the lateral tail vein. Brain dialysate samples used to estimate CSF were collected over 10 minutes, where t = 0 corresponds to the injection: t = -10, 0, 10, 20, 30, 40, 50, and 60 minutes. Blood was sampled to correspond with the median timepoint of the dialysate fraction, where t = 0 corresponds to the injection: t = -5, 0, 1, 5, 15, 25, 35, 45, and 55 […]
minutes. To separate plasma from whole blood, each sample was collected in ethylenediamine tetraacetic acid capillary tubes (CT-CB300-K2EDTA; Sarstedt, Nümbrecht, Germany), inverted repeatedly for 30 seconds, and centrifuged for 10 minutes at 2,000 x g in a refrigerated centrifuge (Galaxy Mini Centrifuge; VWR, Radnor, PA).
Brain dialysate (5 μL) and plasma (5 μL) were mixed with 5 μL and 50 μL of preservation solution […]
Enkephalin), respectively, and then vortexed for 10 seconds. 90 μL of cold acetone and deionized water (75:25, v/v) was added to precipitate dialysate and plasma proteins. After vortexing for 30 seconds, samples were centrifuged at 13,000 rpm for 15 minutes at 4 °C. The supernatant was evaporated using a Savant Speedvac concentrator. Dialysate and plasma samples were reconstituted in a 20 μL and 200 μL diluent (2% acetonitrile and 0.1% formic acid in deionized water), respectively. Samples were injected into the ThermoFisher UHPLC-MS/MS TSQ system.
Chromatographic separation was achieved on an ACQUITY UPLC HSS T3 C18 Column (100 Å, 1.8 µm, 2.1 X 100 mm) and VanGuard pre-column (HSS T3 1.8 μm, 2.1 X 5 mm) with the temperature set at 20 ℃. A water-acetonitrile gradient with a 0.3 mL/minute flow rate was used.
The mobile phases used were A: 0.1% v/v formic acid in deionized water and B: 0.1% v/v formic acid in acetonitrile. An injection volume of 8 µL was used. Detection was achieved using a Thermo Fisher TSQ Fortis Plus mass spectrometry instrument with an H-ESI ion source. The instrument was operated in a positive ion mode. The MRM mode was used for quantification using target […]
protonated ZH853 (MW 809.92 gmol-1). Concentrations were calculated using the response factor-concentration plot. Pharmacokinetic parameters, including the area under the curve (AUC), maximum plasma concentration (Cmax), the time to reach Cmax (Tmax), and half-life (t1/2), were […]
(§2) using the microdialysis probe recovery rate. All data are presented as mean ± SEM.

[3] = biological target: KOR (Homo sapiens, UniProt P41145); test: cell-based; settings: HEK cells; means and SEMs of 3–6 assays; read-out: IC50 KOR (κ), cAMP
Sequence of KOR (P41145 whole entry): as above

[4] = biological target: T2, mu opioid receptor (MOR) (Homo sapiens, UniProt P35372); test: Opioid receptor binding (NIMH PDSP), MOR
T2 construct: NIMH Psychoactive Drug Screening Program (PDSP)
T2 sequence (P35372 whole entry): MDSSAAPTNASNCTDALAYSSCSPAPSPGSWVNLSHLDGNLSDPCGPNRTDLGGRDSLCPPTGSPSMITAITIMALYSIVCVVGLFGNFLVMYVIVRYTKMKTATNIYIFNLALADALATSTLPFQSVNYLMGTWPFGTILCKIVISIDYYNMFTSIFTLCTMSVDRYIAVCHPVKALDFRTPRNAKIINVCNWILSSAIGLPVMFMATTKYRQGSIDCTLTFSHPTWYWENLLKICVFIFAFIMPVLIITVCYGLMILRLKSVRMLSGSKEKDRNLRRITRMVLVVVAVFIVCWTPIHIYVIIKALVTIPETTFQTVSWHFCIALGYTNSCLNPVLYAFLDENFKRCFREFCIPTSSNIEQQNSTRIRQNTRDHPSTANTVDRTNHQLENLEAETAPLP
Source text: as §1

[5] = biological target: T3, MOR (Homo sapiens, UniProt P35372); test: Gi signaling (inhibition of cAMP) in opioid-receptor-expressing HEK cells, MOR; type: cell-based
T3 construct: host or cells: HEK cells expressing the receptor (from the earlier reading's assay name)
T3 sequence (P35372 whole entry): as above
Description: (§3) Opioid-receptor-specific functional activity was assessed in cyclicAMP (cAMP) assays by PDSP.

[6] = biological target: T4, DOR (Homo sapiens, UniProt P41143); test: Gi signaling (inhibition of cAMP) in opioid-receptor-expressing HEK cells, DOR; type: cell-based
T4 construct: host or cells: HEK cells expressing the receptor (from the earlier reading's assay name)
T4 sequence (P41143 whole entry): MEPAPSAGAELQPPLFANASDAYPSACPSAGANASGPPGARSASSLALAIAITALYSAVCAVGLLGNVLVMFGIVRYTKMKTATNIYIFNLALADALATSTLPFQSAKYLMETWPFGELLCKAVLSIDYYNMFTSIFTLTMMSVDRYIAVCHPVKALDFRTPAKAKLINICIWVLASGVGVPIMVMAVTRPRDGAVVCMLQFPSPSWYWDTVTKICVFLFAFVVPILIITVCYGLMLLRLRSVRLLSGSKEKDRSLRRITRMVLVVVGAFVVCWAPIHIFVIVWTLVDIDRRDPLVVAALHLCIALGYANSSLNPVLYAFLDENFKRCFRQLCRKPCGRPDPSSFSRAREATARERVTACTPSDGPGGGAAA
Description: as §3

[7] = biological target: T5, delta opioid receptor (DOR) (Homo sapiens, UniProt P41143); test: Opioid receptor binding (NIMH PDSP), DOR
T5 construct: NIMH Psychoactive Drug Screening Program (PDSP)
T5 sequence (P41143 whole entry): as above
Source text: as §1

[8] = tested on: male and female DBA mice; test: animal or person; type: in vivo; settings: for ED50: Mus musculus, sc
Description: (§4) calculated and used as the peak response for determining ED50’s. Initial tests, based on previous studies with ZH853, were 3h in duration.
(§5) Additional subgroups (n = 4-5) were therefore tested for 5h. […] For the time course (Figure 3) […]
(§6) animals were used. Duration of antinociception was assessed using both the area under the curve (AUC) and duration of antinociception, calculated as the time from the first to the last time point greater than or equal to 50% MPE.
(§7) Hot Plate (HP) Test: This test reflects a supraspinally organized complex response, 6 and was used to assess the CNS activation of antinociception by peripherally (s.c.) administered […]
(§8) to reduce test compound requirements. The HP apparatus (IITC, Woodland Hills, CA) was set to 55.5°C, a temperature that elicited a response after 7-9 sec. Three baseline HP latencies to rapidly lift, lick, or shake the hind paws were taken prior to drug injection. Mice were removed from the HP after a maximum of 30 sec. Mice were injected with several analogs (0–5.6 mg/kg s.c.) and tested from 30–300 min after injection.
(%MPE) as described for TF. […]
each of those respective times was therefore calculated and used as the peak response for determining ED50’s. These values were used to calculate area under the curve (AUC). The duration of antinociception greater than 50% MPE was calculated as with TF.
Figure S3. Microdialysis and Pharmacokinetics Experiment Scheme.
Scheme depicts catheterization and microdialysis of the rat striatum. […]
endomorphin-1 analog (10 mg/kg; i.v.) ZH853 = ZH853•HCl (10 mg/kg; i.v.); aCSF = artificial cerebrospinal fluid. Created with BioRender.com (Agreement number MH26RXD2YP).
(1 picture or pasted object on this page, not shown here)

[9] = tested on: male and female CD-1 mice; test: Tail flick (TF) antinociception; type: in vivo; settings: for ED50: Mus musculus, sc
Source text: as §2
For the dialysate, the mean
Animals: Male and female CD-1 and DBA mice, 21–29 g at testing, were obtained from Charles River (Wilmington, MA) and housed in a 12-h light/dark cycle. All experiments were approved by the Tulane Institutional Animal Care and Use Committee and conducted according to the NIH Guide for the Care and Use of Laboratory Animals. All efforts were made to minimize animal suffering and to reduce the number of animals used.
Tail Flick (TF): CD1 mice were used for this test. The latency to withdraw the tail from a heat source was automatically measured (IITC, Woodland Hills, CA). […]
with a cutoff time of 9 s to prevent tissue damage. Percent Maximum Possible Effect (%MPE) was determined as [(latency-baseline latency)/(9-baseline latency)]*100. […]
as §4, §5, §6, §7, §8
(%MPE) as described for TF.

[10] = male, Sprague-Dawley, iv, brain dialysate, read-out: Tmax Brain (dialysate) (converted)
[11] = male, Sprague-Dawley, iv, plasma, read-out: Tmax Plasma (converted)
[12] = male, Sprague-Dawley, brain dialysate, iv, 10 mg/kg, brain dialysate, read-out: Half-life Brain (dialysate)
[13] = male, Sprague-Dawley, plasma, iv, 10 mg/kg
[14] = male, Sprague-Dawley, plasma, iv, 10 mg/kg, plasma 0-55 min, n=3
[15] = male, Sprague-Dawley, plasma, iv, 10 mg/kg, plasma, read-out: Half-life Plasma
[16] = tail flick, 10 mg/kg morphine, 1.8 mg/kg A2

NC(=O)[C@H](CO)NC(=O)[C@@H]1CCC(=O)NCCCC[C@@H](NC(=O)[C@@H](N)Cc2ccc(O)cc2)C(=O)N[C@@H](Cc2c[nH]c3ccccc23)C(=O)N[C@@H](Cc2ccccc2)C(=O)N1 [Analog A8]
Ki [1]: 1260 ± 145 nM

NC(=O)[C@H](CO[C@@H]1O[C@H](CO)[C@@H](O)[C@H](O)[C@H]1O)NC(=O)[C@@H]1CCC(=O)NCCCC[C@@H](NC(=O)[C@@H](N)Cc2ccc(O)cc2)C(=O)N[C@@H](Cc2c[nH]c3ccccc23)C(=O)N[C@@H](Cc2ccccc2)C(=O)N1 [Analog A1]
Tmax [2, 10]: 5 min | Tmax [2, 11]: 1 min | half-life [2, 12]: 16.6 ± 7.9 min | Cmax [2, 13]: 15.7 ± 7.4 µM | AUC [2, 14]: 2.62 µM·h | half-life [2, 15]: 25.9 ± 5.7 min | AUC of plasma, increase over ZH853 ([2]; 0-55 min): ~ 1.5 fold | AUC of estimated CSF, increase over ZH853 ([2]; 0-60 min): ~ 8 fold | Cmax Brain (dialysate) ([2]; brain dialysate, 10 mg/kg): 10.8 ± 6.5 µM and 11 ± 7 µM | AUC Brain (estimated CSF, brain dialysate) ([2]; n=3, 10 mg/kg): 141.0 ± 69.2 µM·min and 141 ± 69 µM·min

NC(=O)CNC(=O)[C@@H]1CCC(=O)NCCCC[C@@H](NC(=O)[C@@H](N)Cc2ccc(O)cc2)C(=O)N[C@@H](Cc2c[nH]c3ccccc23)C(=O)N[C@@H](Cc2ccccc2)C(=O)N1 [ZH853]
Tmax [2, 10]: 28 min | Tmax [2, 11]: 2 min | half-life [2, 12]: 6.1 ± 0.7 min | Cmax [2, 13]: 16.5 ± 3 µM | AUC [2, 14]: 1.83 µM·h | half-life [2, 15]: 15.9 ± 2.3 min | AUC CSF/Plasma ratio [2]: 0.189 | Cmax Brain (dialysate) ([2]; brain dialysate, 10 mg/kg): 1.5 ± 0.2 µM and 2 ± 0.2 µM | Half-life Brain (dialysate) ([2]; brain dialysate, 10 mg/kg): 6 ± 0.7 min | AUC Plasma ([2]; plasma 0-55 min, n=3, 10 mg/kg): 110 ± 37 µM·min | Cmax ([2]; plasma, 10 mg/kg): 17 ± 3 µM | Half-life Plasma ([2]; plasma, 10 mg/kg): 16 ± 2 min | AUC Brain (estimated CSF, brain dialysate) ([2]; n=3, 10 mg/kg): 20.7 ± 7.9 µM·min and 21 ± 8 µM·min | IC50 [3]: 2270 ± 273 nM | Ki [4]: 0.61 ± 0.2 nM | Ki MOR (μ) ([4]; mean ± SEM of 3 replicate assays): subnanomolar | Selectivity δ/μ (binding) ([4]; ratio of Ki): 631 | Selectivity κ/μ (binding) ([4]; ratio of Ki): 2353 | IC50 [5]: 0.07 ± 0.04 nM | Selectivity δ/μ (cAMP) ([5]; ratio of IC50): 5220 | Selectivity κ/μ (cAMP) ([5]; ratio of IC50): 31460 | Ki [1]: 1440 ± 306 nM | IC50 [6]: 377 ± 166 nM | Ki [7]: 385 ± 61 nM

NC(=O)[C@H](CO[C@@H]1O[C@H](CO)[C@@H](O)[C@H](O)[C@H]1O)NC(=O)[C@@H]1CCC(=O)NCCCC[C@@H](NC(=O)[C@@H](N)Cc2ccc(O)cc2)C(=O)N[C@@H](Cc2cccc3ccccc23)C(=O)N[C@@H](Cc2ccccc2)C(=O)N1 [Analog A6] (H-Y[dK][1Nal]FES(βGlc)-NH2; lactam 2-5; N-terminus assumed)
Shift (reduction) of MOR affinity by glycosylation ([4]; relative to unglycosylated peptides): ~5 fold

CN1CC[C@]23c4c5ccc(O)c4O[C@H]2[C@@H](O)C=C[C@H]3[C@H]1C5 [morphine]
ED50 ([8]; female DBA mice, %MPE at peak response, read-out: Hot plate ED50 Female): 2.33 ± 0.18 mg/kg | ED50 ([8]; female DBA mice, read-out: Hot plate ED50 Female): 6.99 ± 0.52 µmol/kg | ED50 ([8]; male DBA mice, %MPE at peak response, read-out: Hot plate ED50 Male): 2.82 ± 0.24 mg/kg | ED50 ([8]; male DBA mice, read-out: Hot plate ED50 Male): 8.43 ± 0.73 µmol/kg | Time of peak response ([8]; hot plate): 30 to 45 min | ED50 ([9]; female CD-1 mice, %MPE at peak response, read-out: Tail flick ED50 Female): 1.57 ± 0.35 mg/kg | ED50 ([9]; female CD-1 mice, read-out: Tail flick ED50 Female): 4.69 ± 1.08 µmol/kg | ED50 ([9]; male CD-1 mice, read-out: Tail flick ED50 Male): 3.74 ± 0.39 µmol/kg | Time of peak response ([9]; tail flick): 20 to 30 min | Duration of antinociception ([9]; tail flick, 5.6 mg/kg): ~2 h | Antinociception at matched doses [9, 16]: 100 %MPE | Duration of antinociception at matched doses [9, 16]: > 3 h
